Our source for the IC50 and Ki values is ChEMBL document CHEMBL1130436, “Synthesis and opioid activity of conformationally constrained dynorphin A analogues. 2. Conformational constraint in the "address" sequence” (J Med Chem, 1997).

One assay is filed under the species Cavia porcellus. The assay can be described thus: Opioid activity in guinea pig ileum. Format: functional.
For assay [1], the target named is Kappa-type opioid receptor (Cavia porcellus, UniProt P41144). Description: Binding affinity of compound was measured on Opioid receptor kappa 1 by competitive inhibition of radioligand [3H]diprenorphine using cloned receptors transiently expressed on COS-7 (monkey kidney) cells. The assay is classed as cell-based.
For a further assay, the target named is Mu-type opioid receptor (Cavia porcellus, UniProt P97266). Description: Binding affinity of compound was measured on Opioid receptor mu 1 by competitive inhibition of radioligand [3H]DAMGO using cloned receptors transiently expressed on COS-7 (monkey kidney) cells. The assay is classed as cell-based.
For assay [2], the target named is Delta-type opioid receptor (Homo sapiens, UniProt P41143). Description: Binding affinity of compound was measured on Opioid receptor delta 1 by competitive inhibition of radioligand [3H]DPDPE using cloned receptors transiently expressed on COS-7 (monkey kidney) cells. The assay is classed as cell-based.

In general, IC50 refers to the concentration needed to halve the response being measured. As usually defined, the Ki is the dissociation constant of the complex between target and ligand, obtained from inhibition or displacement. As to `CC[C@H](C)[C@H](NC(=O)[C@H](CCCNC(=N)N)NC(=O)[C@@H]1CCNC(=O)C[C@@H](NC(=O)CNC(=O)[C@@H](N)Cc2ccc(O)cc2)C(=O)N[C@@H](Cc2ccccc2)C(=O)N[C@@H](CC(C)C)C(=O)N1)C(=O)N[C@@H](CCCNC(=N)N)C(=O)N1CCC[C@H]1C(=O)N[C@@H](CCCCN)C(=O)N[C@@H](CC(C)C)C(=O)N[C@@H](CCCCN)C(N)=O`, in the assay listed under Cavia porcellus, the half-inhibitory concentration (IC50) was found to be 880 nM. The Ki came out at 270 nM in assay [1], 210 nM at Mu-type opioid receptor and 1000 nM in assay [2].

`CC[C@H](C)[C@H](NC(=O)[C@H](CCCNC(=N)N)NC(=O)[C@@H]1CNC(=O)C[C@@H](NC(=O)CNC(=O)[C@@H](N)Cc2ccc(O)cc2)C(=O)N[C@@H](Cc2ccccc2)C(=O)N[C@@H](CC(C)C)C(=O)N1)C(=O)N[C@@H](CCCNC(=N)N)C(=O)N1CCC[C@H]1C(=O)N[C@@H](CCCCN)C(=O)N[C@@H](CC(C)C)C(=O)N[C@@H](CCCCN)C(N)=O`: the IC50 in the assay listed under Cavia porcellus is 1000 nM. Also, the Ki came out at 480 nM in assay [1], 910 nM at Mu-type opioid receptor and 2800 nM in assay [2].
